From PMC8847575, “HSL1 and BAM1/2 impact epidermal cell development by sensing distinct signaling peptides” (Nature Communications, 2022)
Ends that are not written are not given here.

Columns and labels:
[1] = biological target: T1, HSL1-SERK1 complex (Arabidopsis thaliana, UniProt Q94AG2+Q9SGP2); test: ITC, SERK1 titrated into HSL1 plus peptide (ternary complex formation); details: SERK1 (syringe) into HSL1 + indicated peptide (cell), 25 °C, 20 mM sodium citrate pH 5.0, 150 mM NaCl, N fitted to 1, mean ± SD of at least two independent experiments, n.d = no binding detected
T1 construct: HSL1 (residues 17-618, AT1G28440); made in house; host or cells: Trichoplusia ni Tnao38 insect cells (baculovirus)
T1 sequence (Q9SGP2 17-618): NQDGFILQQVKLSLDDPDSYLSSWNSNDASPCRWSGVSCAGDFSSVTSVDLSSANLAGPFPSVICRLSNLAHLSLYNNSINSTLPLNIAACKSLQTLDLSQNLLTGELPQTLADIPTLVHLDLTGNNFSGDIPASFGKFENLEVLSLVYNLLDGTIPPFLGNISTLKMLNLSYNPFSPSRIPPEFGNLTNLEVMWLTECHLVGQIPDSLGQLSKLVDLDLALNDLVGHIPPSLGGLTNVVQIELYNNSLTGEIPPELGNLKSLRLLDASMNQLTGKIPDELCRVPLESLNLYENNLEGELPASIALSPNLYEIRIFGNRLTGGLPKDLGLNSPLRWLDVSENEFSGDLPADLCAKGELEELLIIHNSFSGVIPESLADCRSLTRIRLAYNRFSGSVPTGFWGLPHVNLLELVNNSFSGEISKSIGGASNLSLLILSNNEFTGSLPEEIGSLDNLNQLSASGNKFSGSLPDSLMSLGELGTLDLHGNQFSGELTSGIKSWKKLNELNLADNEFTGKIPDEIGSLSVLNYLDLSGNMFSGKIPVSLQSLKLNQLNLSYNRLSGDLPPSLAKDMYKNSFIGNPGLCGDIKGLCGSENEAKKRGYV
T1 sequence (Q94AG2 24-213 partner limits assumed): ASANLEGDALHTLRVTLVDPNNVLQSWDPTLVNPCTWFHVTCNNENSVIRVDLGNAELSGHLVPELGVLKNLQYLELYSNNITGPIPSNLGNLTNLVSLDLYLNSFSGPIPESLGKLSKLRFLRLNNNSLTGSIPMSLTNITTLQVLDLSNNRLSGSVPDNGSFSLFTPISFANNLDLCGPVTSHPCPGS
Description: (§1) All genes used for protein expression in Trichoplusia ni Tnao38 cells[46] were codon optimized and cloned into a modified pFastBac vector (Geneva Biotech) providing an azurocidin[47] or Drosophila BIP signal peptide, a TEV (tobacco etch virus protease) cleavage site and a Strep-9xHis tandem affinity tag at their carboxy terminus. The genes used are coding for the Arabidopsis ectodomains of HSL1 (residues 17-618, AT1G28440), HAE (residues 20-620, AT4G28490) SERK1 (residues 24–213, AT1G71830), and BAM1 (residues 20–637, AT5G65700). To perform Grating-coupled interferometry (GCI) experiments, HSL1 was fused to a non-cleavable Avi-tag[49],[50]. […] After every expression round, secretion of our proteins was detected using an anti-His-HRP conjugated antibody from Roche (Ref:11965085001) in a 1:2000 dilution. […] Proteins were analyzed for purity and structural integrity by SDS-PAGE.
(§2) Experiments were performed at 25 °C using a MicroCal PEAQ-ITC (Malvern Instruments) with a 200 µL standard cell and a 40 μL titration syringe. […] Molar protein concentrations for HSL1, BAM1, and SERK1 were calculated using their molar extinction coefficient and a molecular weight of 74,896 and 27,551 Da, respectively as previously determined. […] Experiments were done in duplicates or triplicates, otherwise specified, and data were analyzed using the MicroCal PEAQ-ITC Analysis Software provided by the manufacturer. […]

[2] = biological target: T2, HSL1 ectodomain (Arabidopsis thaliana, UniProt Q9SGP2); test: ITC, peptide titrated into isolated HSL1 ectodomain; details: peptide (syringe) into HSL1 ectodomain (cell), 25 °C, 20 mM sodium citrate pH 5.0, 150 mM NaCl, N fitted to 1, mean ± SD of at least two independent experiments, n.d = no binding detected
T2 construct: HSL1 (residues 17-618, AT1G28440); azurocidin or Drosophila BIP signal peptide (secretion signal) (N); made in house; host or cells: Trichoplusia ni Tnao38 insect cells (baculovirus)
T2 sequence (Q9SGP2 17-618): T1 sequence (Q9SGP2 17-618)
Description: as §1, §2

## RLVPSGPNPLHH [CLE13]
[1]
  Kd (dissociation constant), SERK1 vs HSL1 + peptide: no biding was detected
[2]
  Kd (dissociation constant), peptide vs HSL1: could not detect binding
